Reference: patent US8536332B2, “Modulating signal transduction pathways with substituted pyridol [2,3-b] pyrazines” (Aeterna Zentaris GmbH, priority 2007, dated 2013)

Compound | melting point [°C]
CCNC(=O)Nc1ccc2ncc(-c3cnc4[nH]ccc4c3)nc2n1 [Compound 61, 1-Ethyl-3-[3-(1H-pyrrolo[2,3-b]pyridin-5-yl)-pyrido[2,3-b]pyrazin-6-yl]-urea] | 270 to 274
CC(C)NC(=O)Nc1cnc2ccc(-c3cc(Cl)c(O)c(Cl)c3)nc2n1 [Compound 552, 1-[6-(3,5-Dichloro-4-hydroxy-phenyl)-pyrido[2,3-b]pyrazin-3-yl]-3-isopropyl-urea] | 259 to 261
COc1cc(-c2ccc3ncc(NC(=O)Nc4ccc([N+](=O)[O-])cc4)nc3n2)ccc1O [Compound 616, 1-[6-(4-Hydroxy-3-methoxy-phenyl)-pyrido[2,3-b]pyrazin-3-yl]-3-(4-nitro-phenyl)-urea] | 247 to 250
CCNC(=O)Nc1ccc2ncc(Nc3cccc(C)c3C)nc2n1 [Compound 378, 1-[3-(2,3-Dimethyl-phenylamino)-pyrido[2,3-b]pyrazin-6-yl]-3-ethyl-urea] | 225
CCNC(=O)Nc1cnc2ccc(Nc3ccc(C)cc3)nc2n1 [Compound 1, 1-Ethyl-3-(6-p-tolylamino-pyrido[2,3-b]pyrazin-3-yl)-urea] | 235
CCNC(=O)Nc1cnc2ccc(-c3ccc(O)cc3)nc2n1 [Compound 182, 1-Ethyl-3-[6-(4-hydroxy-phenyl)-pyrido[2,3-b]pyrazin-3-yl]-urea] | 277 to 279
COc1cc(Nc2cnc3ccc(NC(=S)NCCCc4ccccc4)nc3n2)cc(OC)c1OC [Compound 704, 1-(3-Phenyl-propyl)-3-[3-(3,4,5-trimethoxy-phenylamino)-pyrido[2,3-b]pyrazin-6-yl]-thiourea] | 195 to 198
CCNC(=O)Nc1ccc2ncc(Nc3ccc(C(=O)N4CCOCC4)cc3)nc2n1 [Compound 48, 1-Ethyl-3-{3-[4-(morpholine-4-carbonyl)-phenylamino]-pyrido[2,3-b]-pyrazin-6-yl}-urea] | 276 to 279
CCNC(=S)Nc1ccc2ncc(Nc3ccc(O)c([N+](=O)[O-])c3)nc2n1 [Compound 491, 1-Ethyl-3-[3-(4-hydroxy-3-nitro-phenylamino)-pyrido[2,3-b]pyrazin-6-yl]-thiourea] | 250
COc1cc(-c2ccc3ncc(NC(=O)Nc4cccc([N+](=O)[O-])c4)nc3n2)ccc1O [Compound 618, 1-[6-(4-Hydroxy-3-methoxy-phenyl)-pyrido[2,3-b]pyrazin-3-yl]-3-(3-nitro-phenyl)-urea] | 274 to 276
CCNC(=O)Nc1ccc2ncc(Nc3ccc(C)cc3C)nc2n1 [Compound 398, 1-[3-(2,4-Dimethyl-phenylamino)-pyrido[2,3-b]pyrazin-6-yl]-3-ethyl-urea] | 210
COc1cc(-c2ccc3ncc(NC(=O)Nc4ccc(N(C)C)cc4)nc3n2)ccc1O [Compound 602, 1-(4-Dimethylamino-phenyl)-3-[6-(4-hydroxy-3-methoxy-phenyl)-pyrido[2,3-b]pyrazin-3-yl]-urea] | 287 to 290
COc1cc(-c2ccc3ncc(NC(=O)Nc4cccc5c4ccn5C)nc3n2)ccc1O [Compound 621, 1-[6-(4-Hydroxy-3-methoxy-phenyl)-pyrido[2,3-b]pyrazin-3-yl]-3-(1-methyl-1H-indol-4-yl)-urea] | 248 to 251
COc1cc(-c2ccc3ncc(NC(=S)NC4CCCC4)nc3n2)ccc1O [Compound 519, 1-Cyclopentyl-3-[6-(4-hydroxy-3-methoxy-phenyl)-pyrido[2,3-b]pyrazin-3-yl]-thiourea] | 233 to 235
CCNC(=O)Nc1ccc2ncc(-c3cccc(N(C)C)c3)nc2n1 [Compound 144, 1-[3-(3-Dimethylamino-phenyl)-pyrido[2,3-b]pyrazin-6-yl]-3-ethyl-urea] | 240 to 244
CCNC(=O)Nc1ccc2ncc(Nc3ccc(C(=O)OC)c(OC)c3)nc2n1 [Compound 87, 4-[6-(3-Ethyl-ureido)-pyrido[2,3-b]pyrazin-3-ylamino]-2-methoxy-benzoic acid methyl ester] | 256 to 259
CCNC(=O)Nc1ccc2ncc(-c3c(F)cccc3OC)nc2n1 [Compound 137] | 236 to 239
CCNC(=O)Nc1cnc2ccc(Nc3cnc4ccccc4c3)nc2n1 [Compound 32, 1-Ethyl-3-[6-(quinolin-3-ylamino)-pyrido[2,3-b]pyrazin-3-yl]-urea] | 265 to 270
CCNC(=O)Nc1cnc2ccc(-c3cc(C(C)(C)C)c(O)c(C(C)(C)C)c3)nc2n1 [Compound 596, 1-[6-(3,5-Di-tert-butyl-4-hydroxy-phenyl)-pyrido[2,3-b]pyrazin-3-yl]-3-ethyl-urea] | 263
CCNC(=O)Nc1ccc2ncc(Nc3cccc(Cl)c3)nc2n1 [Compound 167, 1-[3-(3-Chloro-phenylamino)-pyrido[2,3-b]pyrazin-6-yl]-3-ethyl-urea] | 253
CCNC(=O)Nc1ccc2ncc(-c3ccc(F)cc3OCC)nc2n1 [Compound 112, 1-[3-(2-Ethoxy-4-fluoro-phenyl)-pyrido [2,3-b]pyrazin-6-yl]-3-ethyl-urea] | 229 to 231
CCNC(=O)Nc1ccc2ncc(-c3cccc(OC)c3OC)nc2n1 [Compound 68, 1-[3-(2,3-Dimethoxy-phenyl)-pyrido[2,3-b]pyrazin-6-yl]-3-ethyl-urea] | 182 to 185

Compound | melting point [°C]
CCNC(=S)Nc1ccc2ncc(-c3ccc(C)cc3)nc2n1 [Compound 124, 1-Ethyl-3-(3-p-tolyl-pyrido[2,3-b]pyrazin-6-yl)-thiourea] | 246
CCNC(=O)Nc1ccc2ncc(-c3cccc(Br)c3OC(C)C)nc2n1 [Compound 67, 1-[3-(3-Bromo-2-isopropoxy-phenyl)-pyrido[2,3-b]pyrazin-6-yl]-3-ethyl-urea] | 200 to 202
CCNC(=S)Nc1ccc2ncc(Nc3ccc(OC)c(Cl)c3)nc2n1 [Compound 159, 1-[3-(3-Chloro-4-methoxy-phenylamino)-pyrido[2,3-b]pyrazin-6-yl]-3-ethyl-thiourea] | 276
CCNC(=S)Nc1cnc2ccc(Nc3ccc(C)c(NS(C)(=O)=O)c3)nc2n1 [Compound 207, N-{5-[3-(3-Ethyl-thioureido)-pyrido[2,3-b]pyrazin-6-ylamino]-2-methyl-phenyl}-methanesulfonamide] | 236
CCNC(=O)Nc1ccc2ncc(Nc3ccc(O)c(C)c3)nc2n1 [Compound 86, 1-Ethyl-3-[3-(4-hydroxy-3-methyl-phenylamino)-pyrido[2,3-b]pyrazin-6-yl]-urea] | 277 to 280
CCNC(=O)Nc1cnc2ccc(-c3ccc(N)c(OC)c3)nc2n1 [Compound 2, 1-[6-(4-Amino-3-methoxy-phenyl)-pyrido[2,3-b]pyrazin-3-yl]-3-ethyl-urea] | > 310
CCCNC(=O)Nc1cnc2ccc(-c3ccc(OC)c(OC)c3)nc2n1 [Compound 570, 1-[6-(3,4-Dimethoxy-phenyl)-pyrido[2,3-b]pyrazin-3-yl]-3-propyl-urea] | 246 to 248
CCNC(=O)Nc1ccc2ncc(-c3ccc(C)c([N+](=O)[O-])c3)nc2n1 [Compound 85, 1-Ethyl-3-[3-(4-methyl-3-nitro-phenyl)-pyrido[2,3-b]pyrazin-6-yl]-urea] | 253.3 to 256.2
CCNC(=O)Nc1ccc2ncc(-c3cnc(N)nc3)nc2n1 [Compound 72, 1-[3-(2-Amino-pyrimidin-5-yl)-pyrido[2,3-b]pyrazin-6-yl]-3-ethyl-urea] | > 300
CCNC(=O)Nc1ccc2ncc(-c3cccc(F)c3)nc2n1 [Compound 129, 1-Ethyl-3-[3-(3-fluoro-phenyl)-pyrido[2,3-b]pyrazin-6-yl]-urea] | 283 to 286
CCNC(=O)Nc1cnc2ccc(-c3cnn(C)c3)nc2n1 [Compound 10, 1-Ethyl-3-[6-(1-methyl-1H-pyrazol-4-yl)-pyrido[2,3-b]pyrazin-3-yl]urea] | 211
CCNC(=O)Nc1cnc2ccc(-c3cc(C)cc(Br)c3OC)nc2n1 [Compound 639, 1-[6-(3-Bromo-2-methoxy-5-methyl-phenyl)-pyrido[2,3-b]pyrazin-3-yl]-3-ethyl-urea] | 250 to 252
COc1cc(-c2ccc3ncc(NC(=O)Nc4ccc(Cl)cc4)nc3n2)ccc1O [Compound 529, 1-(4-Chloro-phenyl)-3-[6-(4-hydroxy-3-methoxy-phenyl)-pyrido[2,3-b]pyrazin-3-yl]-urea] | 224 to 226
CCNC(=O)Nc1cnc2ccc(Nc3ccc(O)c(Cl)c3)nc2n1 [Compound 31, 1-[6-(3-Chloro-4-hydroxy-phenylamino)-pyrido[2,3-b]pyrazin-3-yl]-3-ethyl-urea] | 277 to 280
CC(=O)NCC(=O)Nc1ccc2ncc(Nc3ccc(C)cc3)nc2n1 [Compound 66, 2-Acetylamino-N-(3-p-tolylamino-pyrido [2,3-b]pyrazin-6-yl)-acetamide] | 276 to 279
COc1cc(-c2ccc3ncc(NC(=O)NC4CCCCCCC4)nc3n2)ccc1O [Compound 604, 1-Cyclooctyl-3-[6-(4-hydroxy-3-methoxy-phenyl)-pyrido[2,3-b]pyrazin-3-yl]-urea] | 232 to 234
CCNC(=O)Nc1ccc2ncc(-c3cc(C)cc(Br)c3)nc2n1 [Compound 94, 1-[3-(3-Bromo-5-methyl-phenyl)-pyrido[2,3-b]pyrazin-6-yl]-3-ethyl-urea] | 270 to 274
Cc1cc(-c2ccc3ncc(NC(=O)Nc4ccc(N(C)C)cc4)nc3n2)cc(C)c1O [Compound 583] | 273 to 275
CCNC(=O)Nc1cnc2ccc(Nc3ccc(OC)c(Cl)c3)nc2n1 [Compound 201, 1-[6-(3-Chloro-4-methoxy-phenylamino)-pyrido[2,3-b]pyrazin-3-yl]-3-ethyl-urea] | 260
CCNC(=O)Nc1ccc2ncc(-c3cc(F)c(F)c(F)c3)nc2n1 [Compound 81, 1-Ethyl-3-[3-(3,4,5-trifluoro-phenyl)-pyrido[2,3-b]pyrazin-6-yl]-urea] | 305.4 to 307.2
COc1cc(-c2ccc3ncc(NC(=O)NC(C)(C)C)nc3n2)ccc1O [Compound 28, 1-tert-Butyl-3-[6-(4-hydroxy-3-methoxy-phenyl)-pyrido[2,3-b]pyrazin-3-yl]-urea] | 219 to 222
